The results in this text go back to PubChem BioAssay (NCI).

The structures appear in SMILES notation.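 Five compound concentrations were applied to cells in 96-well plates for 48 hours; endpoints were derived by simple linear interpolation of the resulting dose-response curve. GI50 is the concentration that inhibits growth by half. TGI: concentration producing complete growth inhibition.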 Some results are limits rather than exact numbers.

As usually defined, the TGI is the concentration giving total growth inhibition. The GI50 is the concentration at which growth is held to half of that of the control.

Test systems include MCF7 breast; SN12C renal; COLO 205 colon; CCRF-CEM leukemia; UACC-62 melanoma; DU-145 prostate; MALME-3M melanoma; HCT-116 colon; OVCAR-8 ovarian; SNB-75 CNS.
What all share (assay): DTP human tumour cell line panel, 48 h

As for `CCCCCCCCCCCCCCCCSS(C)(=O)=O`, the TGI in the experiment with MCF7 breast was over 100 µM; in the experiment with SN12C renal it was over 69.5 µM; with COLO 205 colon, 47.4 µM; in the experiment on CCRF-CEM leukemia, 18.4 µM; with UACC-62 melanoma, over 57.5 µM; with DU-145 prostate, over 100 µM. The TGI with MALME-3M melanoma is 24.9 µM; in the experiment on HCT-116 colon, 43.5 µM; in the experiment on OVCAR-8 ovarian it was 58.7 µM; in the experiment on SNB-75 CNS, 32.6 µM.

As for `Nc1nc2ccccc2c2[nH]c3ccccc3c12`, the GI50 in the experiment on MCF7 breast was 1.19 µM; in the experiment with SN12C renal, 1.24 µM; with COLO 205 colon, 1.07 µM; with UACC-62 melanoma, 13.6 µM; in the experiment with DU-145 prostate, 1.94 µM; in the experiment on MALME-3M melanoma it was 1.61 µM. Besides, the GI50 was 0.499 µM with HCT-116 colon, 0.985 µM with OVCAR-8 ovarian and 5.49 µM in the experiment on SNB-75 CNS. Moreover, the concentration for total growth inhibition (TGI) was found to be 2.55 µM in the experiment on MCF7 breast; 2.97 µM in the experiment with SN12C renal; 2.33 µM in the experiment with COLO 205 colon; 27.3 µM in the experiment with UACC-62 melanoma; 10.5 µM in the experiment with DU-145 prostate; 3.19 µM in the experiment with MALME-3M melanoma. The TGI in the experiment with HCT-116 colon turned out to be 1.83 µM; with OVCAR-8 ovarian it was 2.16 µM; with SNB-75 CNS, 16.4 µM.

For `CC1=CC[C@@H]2[C@@H](CC[C@@]2(C)O)C(C)(C)[C@H]1CC[C@@H]1[C@@]2(C)CC[C@@H](O)C(C)(C)O[C@@H]2CC[C@]1(C)O`, the concentration for total growth inhibition (TGI) was over 100 µM with MCF7 breast; 57.2 µM in the experiment with SN12C renal; 38.1 µM with COLO 205 colon; 31.9 µM in the experiment on UACC-62 melanoma; over 100 µM with DU-145 prostate; 27 µM in the experiment on HCT-116 colon.

`CN(C)C(=O)C(NCCO)c1ccccc1` (centres undefined): the total growth inhibition concentration (TGI) with MCF7 breast, in the experiment on SN12C renal, in the experiment with COLO 205 colon, in the experiment on UACC-62 melanoma, in the experiment with DU-145 prostate and in the experiment on HCT-116 colon was over 100 µM in each case. Further, the TGI in the experiment on OVCAR-8 ovarian and with SNB-75 CNS was over 100 µM each time.

On to `COc1cc(-c2nn(-c3ccc(NC(=O)Nc4ccc(Cl)c(C(F)(F)F)c4)cc3)cc2-c2ccncc2)ccc1Cl`, for which the GI50 in the experiment with MCF7 breast was 2.51 µM; in the experiment on SN12C renal it was 2.6 µM; in the experiment on COLO 205 colon, 1.67 µM; in the experiment on CCRF-CEM leukemia it was 1.42 µM; in the experiment on UACC-62 melanoma, 1.77 µM; with DU-145 prostate, 2.47 µM. For the same compound, the GI50 with HCT-116 colon was 1.14 µM; with OVCAR-8 ovarian, 2.03 µM; with SNB-75 CNS, 1.28 µM. For the same compound, the total growth inhibition concentration (TGI) amounted to 8.28 µM with MCF7 breast; 8.82 µM in the experiment on SN12C renal; 3.29 µM in the experiment on COLO 205 colon; 7.01 µM in the experiment with CCRF-CEM leukemia; 3.75 µM in the experiment on UACC-62 melanoma; 7.52 µM with DU-145 prostate. Besides, the figures for the TGI in the experiment on HCT-116 colon, in the experiment with OVCAR-8 ovarian and with SNB-75 CNS were 2.53 µM, 7.83 µM and 4.03 µM, respectively.

On to `COc1ccc(-c2c(-c3cc4c(c(OC)c3OC)OCO4)noc2N)cc1`, for which the concentration for 50% growth inhibition (GI50) was 0.282 µM with MCF7 breast; 0.792 µM in the experiment with SN12C renal; 0.277 µM in the experiment on COLO 205 colon; 0.4 µM in the experiment on CCRF-CEM leukemia; 0.534 µM in the experiment with UACC-62 melanoma; 0.502 µM with DU-145 prostate. The figures for the GI50 in the experiment with HCT-116 colon, in the experiment with OVCAR-8 ovarian and in the experiment with SNB-75 CNS were 0.34 µM, 0.455 µM and 0.138 µM, respectively. For the same compound, the total growth inhibition concentration (TGI) in the experiment on MCF7 breast was over 77.5 µM; with SN12C renal, over 100 µM; in the experiment with COLO 205 colon, 1.25 µM; in the experiment on CCRF-CEM leukemia, over 100 µM; with UACC-62 melanoma, over 100 µM; in the experiment on DU-145 prostate, over 100 µM. Also, the concentration for total growth inhibition (TGI) was 15.9 µM in the experiment with HCT-116 colon, over 56.1 µM in the experiment on OVCAR-8 ovarian and 0.489 µM in the experiment on SNB-75 CNS.

Turning to `CN(Cc1ccccc1)c1ncnc2ccc(Br)cc12`, the GI50 with MCF7 breast is 26.4 µM; with SN12C renal it was 15.1 µM; in the experiment with COLO 205 colon, 16.2 µM; with CCRF-CEM leukemia, 13.6 µM; in the experiment with UACC-62 melanoma, 13.1 µM; in the experiment on DU-145 prostate it was 14.6 µM. In addition, the GI50 with MALME-3M melanoma was 10.9 µM; in the experiment on HCT-116 colon, 11.1 µM; in the experiment with OVCAR-8 ovarian, 26.1 µM. For the same compound, the concentration for total growth inhibition (TGI) in the experiment with MCF7 breast is over 100 µM; in the experiment on SN12C renal, 29.6 µM; with COLO 205 colon, 38.2 µM; in the experiment on CCRF-CEM leukemia, 38.7 µM; with UACC-62 melanoma it was 27.1 µM; with DU-145 prostate, 28.7 µM. The TGI in the experiment with MALME-3M melanoma amounted to 23.2 µM; with HCT-116 colon, 23.5 µM; in the experiment on OVCAR-8 ovarian it was 95.5 µM.

In the case of `COc1ccc2c3c(ccc2c1)NC(C(=O)O)CC3` (centres undefined), the TGI in the experiment on MCF7 breast, in the experiment with SN12C renal, in the experiment with COLO 205 colon, in the experiment with UACC-62 melanoma, in the experiment with DU-145 prostate and in the experiment with MALME-3M melanoma was over 100 µM each time. Besides, the TGI in the experiment on HCT-116 colon, in the experiment on OVCAR-8 ovarian and with SNB-75 CNS was over 100 µM throughout.

As for `O=C(NCCN1CCOCC1)Nc1nc2ccc(Sc3nnc4ccc(-c5ccc(F)cc5)nn34)cc2s1`, the total growth inhibition concentration (TGI) in the experiment with MCF7 breast is over 100 µM; in the experiment with SN12C renal, over 100 µM; in the experiment with COLO 205 colon, over 33.3 µM; in the experiment with CCRF-CEM leukemia, over 100 µM; in the experiment with UACC-62 melanoma, 21.4 µM; in the experiment with DU-145 prostate, over 100 µM. In addition, the concentration for total growth inhibition (TGI) in the experiment on MALME-3M melanoma is over 21.1 µM; with HCT-116 colon, over 100 µM; in the experiment on OVCAR-8 ovarian, over 100 µM. In addition, the GI50 is 4.53 µM in the experiment with COLO 205 colon; 6.16 µM with UACC-62 melanoma; over 100 µM with DU-145 prostate; 3.12 µM with MALME-3M melanoma; 6.88 µM in the experiment on HCT-116 colon; over 100 µM in the experiment on OVCAR-8 ovarian.

As to `N=C(N)c1ccc(CS(=O)(=O)F)cc1`, the GI50 in the experiment with MCF7 breast, in the experiment with SN12C renal, with COLO 205 colon, in the experiment with UACC-62 melanoma, in the experiment on DU-145 prostate and in the experiment with MALME-3M melanoma was over 100 µM in each case. The GI50 in the experiment on HCT-116 colon, in the experiment with OVCAR-8 ovarian and with SNB-75 CNS was over 100 µM each time. In addition, the TGI in the experiment with MCF7 breast, in the experiment on SN12C renal, with COLO 205 colon, with UACC-62 melanoma, in the experiment on DU-145 prostate and with MALME-3M melanoma was over 100 µM in each case. Further, the TGI in the experiment on HCT-116 colon, with OVCAR-8 ovarian and in the experiment on SNB-75 CNS was over 100 µM in each case.

With `C[C@]12CC/C(=N\O)C[C@@H]1CC[C@@H]1[C@@H]2CC[C@]2(C)/C(=N/O)CC[C@@H]12`, the GI50 was 26.1 µM with MCF7 breast; 47.1 µM in the experiment on SN12C renal; 35.8 µM in the experiment on COLO 205 colon; 35.6 µM in the experiment on UACC-62 melanoma; 80.7 µM with DU-145 prostate; 23.3 µM in the experiment with HCT-116 colon. The values for the GI50 in the experiment with OVCAR-8 ovarian and with SNB-75 CNS were 45.2 µM and 37.3 µM, respectively. Further, the TGI is 98.8 µM in the experiment with MCF7 breast; over 100 µM in the experiment with SN12C renal; over 100 µM in the experiment on COLO 205 colon; over 100 µM in the experiment with UACC-62 melanoma; over 100 µM in the experiment with DU-145 prostate; 58.5 µM in the experiment with HCT-116 colon. Besides, the TGI in the experiment on OVCAR-8 ovarian and in the experiment on SNB-75 CNS was over 100 µM in each case.

As for `CC(C)(C)n1nc(C2CC2)cc1NC(=O)Nc1ccc(Cl)cc1`, the TGI in the experiment with MCF7 breast, in the experiment on SN12C renal, in the experiment with COLO 205 colon, with UACC-62 melanoma, in the experiment with DU-145 prostate and in the experiment on MALME-3M melanoma was over 100 µM each time. Also, the TGI in the experiment on HCT-116 colon, with OVCAR-8 ovarian and in the experiment with SNB-75 CNS was over 100 µM each time.

Regarding `CCCCCCCC(=O)SCC/C=C/[C@@H]1CC(=O)NCc2cccc(n2)C2=N[C@@](C)(CS2)C(=O)N[C@@H](C(C)C)C(=O)O1`, the 50% growth inhibitory concentration (GI50) was 0.0827 µM in the experiment with MCF7 breast; 0.145 µM with SN12C renal; 0.0857 µM in the experiment on COLO 205 colon; 0.112 µM in the experiment with CCRF-CEM leukemia; 0.0175 µM with UACC-62 melanoma; 0.0287 µM in the experiment with DU-145 prostate. Moreover, the GI50 with HCT-116 colon was 0.0148 µM; in the experiment on OVCAR-8 ovarian, 0.0253 µM; in the experiment on SNB-75 CNS, 0.029 µM. Besides, the TGI is over 33.3 µM in the experiment with MCF7 breast; over 33.3 µM in the experiment with SN12C renal; 0.337 µM in the experiment with COLO 205 colon; over 33.3 µM in the experiment on CCRF-CEM leukemia; 0.128 µM with UACC-62 melanoma; over 33.3 µM in the experiment on DU-145 prostate. The TGI in the experiment on HCT-116 colon was 0.219 µM; in the experiment on OVCAR-8 ovarian, over 33.3 µM; in the experiment on SNB-75 CNS it was over 33.3 µM.

As for `O=C1/C(=N/N=C(c2ccccc2)c2ccccc2)c2ccccc2-c2ccccc21`, the TGI in the experiment on MCF7 breast, in the experiment on SN12C renal, with COLO 205 colon, with UACC-62 melanoma, in the experiment with DU-145 prostate and in the experiment on MALME-3M melanoma was over 100 µM throughout. Besides, the TGI in the experiment with HCT-116 colon, in the experiment with OVCAR-8 ovarian and in the experiment with SNB-75 CNS was over 100 µM throughout.

For the compound `COc1ccc(-c2cnc(SCC(=O)c3c(C)n(C)n(-c4ccccc4)c3=O)n2-c2ccc(OC)cc2)cc1`, the GI50 was 35.3 µM in the experiment on MCF7 breast; over 50 µM in the experiment on SN12C renal; over 50 µM with COLO 205 colon; over 50 µM in the experiment with UACC-62 melanoma; 9.13 µM in the experiment with DU-145 prostate; 20.3 µM with HCT-116 colon. For the same compound, in the experiment with OVCAR-8 ovarian, the GI50 is over 50 µM. The concentration for total growth inhibition (TGI) with MCF7 breast, in the experiment with SN12C renal, in the experiment on COLO 205 colon, with UACC-62 melanoma, in the experiment on DU-145 prostate and with HCT-116 colon was over 50 µM throughout. In the experiment with OVCAR-8 ovarian, this compound registered a concentration for total growth inhibition (TGI) of over 50 µM.
